BindingDB's records for doi:10.1016/s0960-894x(98)00721-5 (Tumor Biology Center, 1999)

These compounds were tested against Phospholipase A2 (Naja mossambica mossambica) (assay: Phospholipase A2 inhibition using mixed micelles pH-stat assay and 14 kDa-Phospholipase A2 from Naja mossambica mossambica).

Structure (SMILES)	IC50 [µM]
CCCCCCCCCCCCCCCC(=O)OCCCCCCC[C@H](COP(=O)(O)OC)NC(C)=O [Hexadecanoic acid (R)-8-acetylamino-9-(hydroxy-methoxy-phosphoryloxy)-nonyl ester]	5
CCCCCCCC(=O)OCCCCCCC[C@H](COP(=O)(O)OC)NC(C)=O [Octanoic acid (R)-8-acetylamino-9-(hydroxy-methoxy-phosphoryloxy)-nonyl ester]	3.1
CCCCCCCCCCCCCCCCOCCOCCCCCCC[C@H](COP(=O)(O)OC)NC(C)=O [Phosphoric acid (R)-2-acetylamino-9-(2-hexadecyloxy-ethoxy)-nonyl ester methyl ester]	1.7

Results, then the compound that gave them:

IC50 [µM]	Structure (SMILES)
350	COP(=O)(O)OC[C@@H](CCCCCCCO)NC(C)=O [Phosphoric acid (R)-2-acetylamino-9-hydroxy-nonyl ester methyl ester]
3.4	CCCCCCCCCCCCCCCC[C@H](COP(=O)(O)OC)NC(C)=O [Phosphoric acid (R)-2-acetylamino-octadecyl ester methyl ester]
2.3	COP(=O)(O)OC[C@@H](CCCCCCCOC(=O)CCC(=O)OC1CCC2(C)C(=CCC3C2CCC2(C)C(C(C)CCCC(C)C)CCC32)C1)NC(C)=O (stereo partly drawn) [Succinic acid (R)-8-acetylamino-9-(hydroxy-methoxy-phosphoryloxy)-nonyl ester 17-(1,5-dimethyl-hexyl)-10,13-dimethyl-2,3,4,7,8,9,10,11,12,13,14,15,16,17-tetradecahydro-1H-cyclopenta[a]phenanthren-3-yl ester]
